As a reminder, the Km is the substrate concentration at which the rate is half of its maximum.

This experiment concerns laccase. To be noted: 0.10 M citrate-phosphate buffer pH 2.5, room temperature; ABTS 0.05-1.00 mM; partially purified enzyme.

Take `CCn1c(=NN=c2sc3cc(S(=O)(=O)O)ccc3n2CC)sc2cc(S(=O)(=O)O)ccc21` [ABTS, 2, 2'-azino-bis (3-ethylbenzothiazoline-6-sulphonic acid)]: the Km was 100 µM.

The record behind these values is PMC4544649, “A psychrotolerant strain of Serratia marcescens (MTCC 4822) produces laccase at wide temperature and pH range” (AMB Express, 2015).
